Where a name gives a salt, the structure may show the parent alone.
Biological target: T1, PD-L1/PD-1 complex formation (Homo sapiens, UniProt Q9NZQ7)
T1 construct: purchased BPS Bioscience
Test: PD-L1/PD-1 Interaction Assay (ELISA platform)
Format: binding
Details: human PD-1-Fc coated plates, PD-L1-Fc-biotin 0.1 μg/ml, compounds pre-incubated 2 hours
Experimental: The ability of compounds to block PD-L1/PD-1 complex formation was evaluated using biochemical interaction assay based on the ELISA platform.
EIA/RIA high binding 96-well plates (Costar) were coated with human PD-1-Fc protein diluted in PBS to 0.5 μg/ml overnight at 4° C. The PD-1-Fc coated plates were washed in PBST and blocked in blocking buffer (2% BSA in PBST). Serially diluted compounds were pre-incubated with PD-L1-Fc-biotin (0.1 μg/ml final) for 2 hours on a shaker at room temperature. The PD-1-Fc coated plates were washed with PBST and solutions containing PD-L1 and compounds were added to the plates. The PD-1-Fc coated plates were incubated with PD-L1 and compound solution for 2 hours on a shaker at room temperature. After the incubation unbound PD-L1 was washed away with PBST and plates were incubated with the blocking buffer for 10 minutes. The bound PD-L1-Fc-biotin was detected with streptavidin-HRP and TMB substrate. The plates were read at OD450 nm in a plate reader (i3 from Molecular Devices) and percentages of inhibition of PD-L1/PD-1 complex formation were calculated.
PD-1-Fc protein was made at Polaris and PD-L1-Fc was purchased from BPS Bioscience.

T1 sequence (Q9NZQ7 19-239 limits assumed, one chain of several): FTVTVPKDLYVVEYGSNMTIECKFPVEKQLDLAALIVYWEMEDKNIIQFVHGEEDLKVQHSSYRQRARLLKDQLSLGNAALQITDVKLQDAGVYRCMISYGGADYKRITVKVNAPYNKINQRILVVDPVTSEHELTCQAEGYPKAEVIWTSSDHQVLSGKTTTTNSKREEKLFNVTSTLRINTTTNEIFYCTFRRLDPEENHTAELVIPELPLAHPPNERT

IC50 [nM]	SMILES
11 to 100	Cc1c(COc2ccc(CN3CCCC[C@@H]3C(=O)O)cc2Br)cccc1-c1cccc(COc2ccc(CN3CCCC[C@@H]3C(=O)O)cc2Br)c1C [Example 2, (2R,2′R)-1,1′-(((((2,2′-dimethyl-[1,1′-biphenyl]-3,3′-diyl)bis(methylene))bis(oxy))bis(3-bromo-4,1-phenylene))bis(methylene))bis(piperidine-2-carboxylic acid)]
11 to 100	COc1nc(OCc2cccc(-c3cccc(COc4ccc(CNCCNC(C)=O)c(OC)n4)c3C)c2C)ccc1CNCCNC(C)=O [Example 3, N,N′-(((((((2,2′-Dimethyl-[1,1′-biphenyl]-3,3′-diyl)bis(methylene))bis(oxy))bis(2-methoxypyridine-6,3-diyl))bis(methylene))bis(azanediyl))bis(ethane-2,1-diyl))diacetamide]
> 30000	COC(=O)[C@@H]1CCCCN1Cc1ccc(OCc2cccc(-c3cccc(COc4ccc(CN5CCCC[C@H]5C(=O)OC)cc4Br)c3C)c2C)c(Br)c1 [Example 4, Dimethyl 1,1′-(((((2,2′-dimethyl-[1,1′-biphenyl]-3,3′-diyl)bis(methylene))bis(oxy))bis(3-bromo-4,1-phenylene))bis(methylene))(2S,2′S)-bis(piperidine-2-carboxylate)]
0.1 to 10	Cc1c(COc2ccc(CNCCO)cc2Br)cccc1-c1cccc(COc2ccc(CNCCO)cc2Br)c1C [Example 5, 2,2′-((((((2,2′-Dimethyl-[1,1′-biphenyl]-3,3′-diyl)bis(methylene))bis(oxy))bis(3-bromo-4,1-phenylene))bis(methylene))bis(azanediyl))bis(ethan-1-ol) di-trifluoroacetic acid salt]
0.1 to 10	Cc1c(COc2ccc(CNC(C)(C)C(=O)O)cc2Br)cccc1-c1cccc(COc2ccc(CNC(C)(C)C(=O)O)cc2Br)c1C [Example 14, 2,2′-((((((2,2′-Dimethyl-[1,1′-biphenyl]-3,3′-diyl)bis(methylene))bis(oxy))bis(3-bromo-4,1-phenylene))bis(methylene))bis(azanediyl))bis(2-methylpropanoic acid) di-trifluoroacetic acid salt]
0.1 to 10	Cc1c(COc2ccc(CN[C@@H](C)C(=O)O)cc2Br)cccc1-c1cccc(COc2ccc(CN[C@@H](C)C(=O)O)cc2Br)c1C [Example 15, (2S,2′S)-2,2′-((((((2,2′-Dimethyl-[1,1′-biphenyl]-3,3′-diyl)bis(methylene))bis(oxy))bis(3-bromo-4,1-phenylene))bis(methylene))bis(azanediyl))dipropionic acid di-trifluoroacetic acid salt]
11 to 100	Cc1c(COc2ccc(CN[C@H](C)C(=O)O)cc2Br)cccc1-c1cccc(COc2ccc(CN[C@H](C)C(=O)O)cc2Br)c1C [Example 16, (2R,2′R)-2,2′-((((((2,2′-Dimethyl-[1,1′-biphenyl]-3,3′-diyl)bis(methylene))bis(oxy))bis(3-bromo-4,1-phenylene))bis(methylene))bis(azanediyl))dipropionic acid di-trifluoroacetic acid salt]
0.1 to 10	Cc1c(COc2ccc(CN[C@H](CO)C(=O)O)cc2Br)cccc1-c1cccc(COc2ccc(CN[C@H](CO)C(=O)O)cc2Br)c1C [Example 17, (2R,2′R)-2,2′-((((((2,2′-Dimethyl-[1,1′-biphenyl]-3,3′-diyl)bis(methylene))bis(oxy))bis(3-bromo-4,1-phenylene))bis(methylene))bis(azanediyl))bis(3-hydroxypropanoic acid) di-trifluoroacetic acid salt]
0.1 to 10	Cc1c(COc2ccc(CN[C@@H](C(=O)O)[C@H](C)O)cc2Br)cccc1-c1cccc(COc2ccc(CN[C@@H](C(=O)O)[C@H](C)O)cc2Br)c1C [Example 18, (2R,2′R,3S,3′S)-2,2′-((((((2,2′-Dimethyl-[1,1′-biphenyl]-3,3′-diyl)bis(methylene))bis(oxy))bis(3-bromo-4,1-phenylene))bis(methylene))bis(azanediyl))bis(3-hydroxybutanoic acid) di-trifluoroacetic acid salt]
1010 to 30000	Cc1c(COc2ccc(CN3CCCC[C@H]3C(N)=O)cc2Br)cccc1-c1cccc(COc2ccc(CN3CCCC[C@H]3C(N)=O)cc2Br)c1C [Example 23, (2S,2′S)-1,1′-(((((2,2′-Dimethyl-[1,1′-biphenyl]-3,3′-diyl)bis(methylene))bis(oxy))bis(3-bromo-4,1-phenylene))bis(methylene))bis(piperidine-2-carboxamide)]
110 to 1000	Cc1c(COc2ccc(CN3CCCC[C@H]3C(=O)NCCO)cc2Br)cccc1-c1cccc(COc2ccc(CN3CCCC[C@H]3C(=O)NCCO)cc2Br)c1C [Example 24, (2S,2′S)-1,1′-(((((2,2′-Dimethyl-[1,1′-biphenyl]-3,3′-diyl)bis(methylene))bis(oxy))bis(3-bromo-4,1-phenylene))bis(methylene))bis(N-(2-hydroxyethyl)piperidine-2-carboxamide)]
1010 to 30000	Cc1c(COc2ccc(CN3CCCC[C@H]3C(=O)NCCN(C)C)cc2Br)cccc1-c1cccc(COc2ccc(CN3CCCC[C@H]3C(=O)NCCN(C)C)cc2Br)c1C [Example 25, (2S,2′S)-1,1′-(((((2,2′-Dimethyl-[1,1′-biphenyl]-3,3′-diyl)bis(methylene))bis(oxy))bis(3-bromo-4,1-phenylene))bis(methylene))bis(N-(2-(dimethylamino)ethyl)piperidine-2-carboxamide)]
11 to 100	C#Cc1cc(CN2CCCC[C@H]2C(=O)O)ccc1OCc1cccc(-c2cccc(COc3ccc(CN4CCCC[C@H]4C(=O)O)cc3C#C)c2C)c1C [Example 26, (2S,2′S)-1,1′-(((((2,2′-Dimethyl-[1,1′-biphenyl]-3,3′-diyl)bis(methylene))bis(oxy))bis(3-ethynyl-4,1-phenylene))bis(methylene))bis(piperidine-2-carboxylic acid) di-trifluoroacetic acid salt]
110 to 1000	CCc1cc(CN2CCCC[C@H]2C(=O)O)ccc1OCc1cccc(-c2cccc(COc3ccc(CN4CCCC[C@H]4C(=O)O)cc3CC)c2C)c1C [Example 27, (2S,2′S)-1,1′-(((((2,2′-Dimethyl-[1,1′-biphenyl]-3,3′-diyl)bis(methylene))bis(oxy))bis(3-ethyl-4,1-phenylene))bis(methylene))bis(piperidine-2-carboxylic acid) di-trifluoroacetic acid salt]
110 to 1000	CSc1cc(CN2CCCC[C@H]2C(=O)O)ccc1OCc1cccc(-c2cccc(COc3ccc(CN4CCCC[C@H]4C(=O)O)cc3SC)c2C)c1C [Example 28, (2S,2′S)-1,1′-(((((2,2′-Dimethyl-[1,1′-biphenyl]-3,3′-diyl)bis(methylene))bis(oxy))bis(3-(methylthio)-4,1-phenylene))bis(methylene))bis(piperidine-2-carboxylic acid) di-trifluoroacetic acid salt]
0.1 to 10	Cc1c(COc2ccc(CN3CCCC[C@H]3C(=O)O)cc2C(F)F)cccc1-c1cccc(COc2ccc(CN3CCCC[C@H]3C(=O)O)cc2C(F)F)c1C [Example 29, (2S,2′S)-1,1′-(((((2,2′-Dimethyl-[1,1′-biphenyl]-3,3′-diyl)bis(methylene))bis(oxy))bis(3-(difluoromethyl)-4,1-phenylene))bis(methylene))bis(piperidine-2-carboxylic acid) di-trifluoroacetic acid salt]
110 to 1000	Cc1c(COc2ccc(CN(CC(=O)O)CC(=O)O)cc2Br)cccc1-c1cccc(COc2ccc(CN(CC(=O)O)CC(=O)O)cc2Br)c1C [Example 30, 2,2′,2″,2′″-((((((2,2′-Dimethyl-[1,1′-biphenyl]-3,3′-diyl)bis(methylene))bis(oxy))bis(3-bromo-4,1-phenylene))bis(methylene))bis(azanetriyl))tetraacetic acid di-trifluoroacetic acid salt]
11 to 100	Cc1c(COc2ccc(CN(CCO)CCO)cc2Br)cccc1-c1cccc(COc2ccc(CN(CCO)CCO)cc2Br)c1C [Example 31, 2,2′,2″,2′″-((((((2,2′-Dimethyl-[1,1′-biphenyl]-3,3′-diyl)bis(methylene))bis(oxy))bis(3-bromo-4,1-phenylene))bis(methylene))bis(azanetriyl))tetrakis(ethan-1-ol) di-trifluoroacetic acid salt]
0.1 to 10	Cc1c(COc2ccc(CNC(CO)CO)cc2Br)cccc1-c1cccc(COc2ccc(CNC(CO)CO)cc2Br)c1C [Example 32, 2,2′-((((((2,2′-Dimethyl-[1,1′-biphenyl]-3,3′-diyl)bis(methylene))bis(oxy))bis(3-bromo-4,1-phenylene))bis(methylene))bis(azanediyl))bis(propane-1,3-diol) di-trifluoroacetic acid salt]
0.1 to 10	Cc1c(COc2ccc(CNC(C)(CO)CO)cc2Br)cccc1-c1cccc(COc2ccc(CNC(C)(CO)CO)cc2Br)c1C [Example 33, 2,2′-((((((2,2′-Dimethyl-[1,1′-biphenyl]-3,3′-diyl)bis(methylene))bis(oxy))bis(3-bromo-4,1-phenylene))bis(methylene))bis(azanediyl))bis(2-methylpropane-1,3-diol) di-trifluoroacetic acid salt]

From US20180065917A1, “IMMUNE CHECKPOINT INHIBITORS, COMPOSITIONS AND METHODS THEREOF” (Polaris Pharmaceuticals, Inc., priority 2016, published 2018)
